Key:
[1] = biological target: T1, Helios (Homo sapiens, UniProt Q96SW2+Q9UKS7); experiment: Helios Cellular Degradation Assay (flow cytometry, Helios-PE antibody staining, 72 h); type: cell-based; settings: Jurkat cells, 72 h incubation, flow cytometry; for Dmax: Jurkat, read-out: Helios Dmax
T1 construct: fluorescently labelled antibodies against Helios and Ikaros; endogenous in cells; host or cells: Jurkat cells
Protocol: (§1) Helios Cellular Degradation Assay
(§2) Jurkat cells were plated at 80,000 cells/well in 40 μL RPMI+10% FBS in a 384 well cell culture plate prior to using acoustic dispensing technology for adding compound of interest. Cell cultures were incubated for 72 h at 37° C. and 5% CO2. In order to facilitate analysis, cell cultures were spun down at 200 rpm for 5 min and the supernatant was discarded. After shaking the plate to dislodge the cell pellet, cells were resuspended in 50 μL of Fixation Buffer (eBioScience FoxP3 buffer set 0000) for 60 min at room temperature. After centrifuging and discarding the supernatant, cells were permeabilized with 50 μL of Permeabilization buffer (eBioScience FoxP3 buffer set 00-5523-00) for 10 min at room temperature. Following permeabilization, cells were spun down and the supernatant was replaced with 20 μL fluorescently labelled antibodies against Helios and Ikaros or corresponding Isotype controls in 1× Permeabilization buffer (Ikaros-Alexa488 [Biolegend, Cat #368408, 1:50], Helios-PE [CST, Cat #29360, 1:50]) and staining reactions were incubated for 1 h at room temperature; protected from light. Subsequently, 30 μL of 1× Permeabilization buffer was added prior to centrifuging the cells and discarding the supernatant. Stained cells were resuspended in 25 μL of flow cytometry staining buffer (PBS+0.2% BSA) and analyzed using an Intellicyt Ique Plus flow cytometer.
as §2, with “00-5523-00)” for “0000)”

[2] = biological target: T2, Ikaros (Homo sapiens, UniProt Q13422); experiment: Helios Cellular Degradation Assay, Ikaros readout (flow cytometry, Ikaros-Alexa488 antibody staining, 72 h); type: cell-based; settings: Jurkat cells, 72 h incubation, flow cytometry; for Dmax: Jurkat, read-out: Ikaros Dmax
T2 construct: fluorescently labelled antibodies against Helios and Ikaros; endogenous in cells; host or cells: Jurkat cells
Protocol: as §1, §2
as §2, with “00-5523-00)” for “0000)”

T2 sequence (Q96SW2 whole entry partner): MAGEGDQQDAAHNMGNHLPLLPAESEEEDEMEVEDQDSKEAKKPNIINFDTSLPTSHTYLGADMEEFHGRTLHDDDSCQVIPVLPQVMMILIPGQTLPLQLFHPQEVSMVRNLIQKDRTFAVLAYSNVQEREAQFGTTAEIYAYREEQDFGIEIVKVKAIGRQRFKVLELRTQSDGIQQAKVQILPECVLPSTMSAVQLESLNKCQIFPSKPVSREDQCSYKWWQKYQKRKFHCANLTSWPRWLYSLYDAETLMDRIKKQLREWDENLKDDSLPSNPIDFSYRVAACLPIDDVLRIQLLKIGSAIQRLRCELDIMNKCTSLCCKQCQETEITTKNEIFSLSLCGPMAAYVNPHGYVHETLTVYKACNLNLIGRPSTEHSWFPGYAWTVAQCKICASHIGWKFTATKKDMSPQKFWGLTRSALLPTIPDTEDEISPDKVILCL
T2 sequence (Q16531 whole entry partner): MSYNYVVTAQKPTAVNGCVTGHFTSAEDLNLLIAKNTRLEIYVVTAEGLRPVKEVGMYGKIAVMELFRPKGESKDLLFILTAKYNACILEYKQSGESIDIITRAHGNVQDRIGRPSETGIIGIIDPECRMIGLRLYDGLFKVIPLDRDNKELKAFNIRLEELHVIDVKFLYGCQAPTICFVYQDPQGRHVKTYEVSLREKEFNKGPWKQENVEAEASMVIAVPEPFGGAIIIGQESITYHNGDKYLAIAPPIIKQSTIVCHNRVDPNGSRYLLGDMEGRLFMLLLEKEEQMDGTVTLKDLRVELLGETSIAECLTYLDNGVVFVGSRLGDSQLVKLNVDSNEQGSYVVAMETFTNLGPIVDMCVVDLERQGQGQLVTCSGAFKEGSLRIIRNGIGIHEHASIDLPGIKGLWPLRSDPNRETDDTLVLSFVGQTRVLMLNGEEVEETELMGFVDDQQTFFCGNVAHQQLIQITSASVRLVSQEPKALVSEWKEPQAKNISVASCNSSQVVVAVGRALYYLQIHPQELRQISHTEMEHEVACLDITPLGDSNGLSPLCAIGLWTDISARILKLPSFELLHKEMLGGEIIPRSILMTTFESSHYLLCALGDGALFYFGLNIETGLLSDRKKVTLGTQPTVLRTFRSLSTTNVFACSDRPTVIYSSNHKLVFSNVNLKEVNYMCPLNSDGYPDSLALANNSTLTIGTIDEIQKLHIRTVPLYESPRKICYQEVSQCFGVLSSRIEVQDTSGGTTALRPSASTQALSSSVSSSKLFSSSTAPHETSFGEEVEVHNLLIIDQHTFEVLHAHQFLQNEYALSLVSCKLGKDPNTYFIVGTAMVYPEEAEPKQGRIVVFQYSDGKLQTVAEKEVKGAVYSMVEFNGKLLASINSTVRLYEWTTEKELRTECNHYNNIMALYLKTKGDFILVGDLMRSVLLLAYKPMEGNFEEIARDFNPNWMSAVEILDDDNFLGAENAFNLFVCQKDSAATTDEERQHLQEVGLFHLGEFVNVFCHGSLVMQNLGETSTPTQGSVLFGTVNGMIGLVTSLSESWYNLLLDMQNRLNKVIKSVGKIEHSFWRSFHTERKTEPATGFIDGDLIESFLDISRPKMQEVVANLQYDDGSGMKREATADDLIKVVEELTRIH
T2 sequence (Q13422 whole entry): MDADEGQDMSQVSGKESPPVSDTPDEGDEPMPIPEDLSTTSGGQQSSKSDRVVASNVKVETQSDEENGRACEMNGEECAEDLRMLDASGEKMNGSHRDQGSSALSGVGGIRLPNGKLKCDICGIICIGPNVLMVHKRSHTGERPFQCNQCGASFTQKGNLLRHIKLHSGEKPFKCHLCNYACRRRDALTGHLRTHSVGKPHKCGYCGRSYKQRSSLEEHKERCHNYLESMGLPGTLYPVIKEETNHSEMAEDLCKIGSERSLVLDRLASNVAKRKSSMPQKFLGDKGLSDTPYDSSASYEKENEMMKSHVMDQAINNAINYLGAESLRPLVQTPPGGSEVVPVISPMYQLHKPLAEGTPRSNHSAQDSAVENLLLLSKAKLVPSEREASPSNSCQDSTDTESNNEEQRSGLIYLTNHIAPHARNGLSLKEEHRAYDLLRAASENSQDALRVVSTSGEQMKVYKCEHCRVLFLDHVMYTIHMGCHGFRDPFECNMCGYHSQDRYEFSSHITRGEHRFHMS
T1 sequence (Q9UKS7 whole entry): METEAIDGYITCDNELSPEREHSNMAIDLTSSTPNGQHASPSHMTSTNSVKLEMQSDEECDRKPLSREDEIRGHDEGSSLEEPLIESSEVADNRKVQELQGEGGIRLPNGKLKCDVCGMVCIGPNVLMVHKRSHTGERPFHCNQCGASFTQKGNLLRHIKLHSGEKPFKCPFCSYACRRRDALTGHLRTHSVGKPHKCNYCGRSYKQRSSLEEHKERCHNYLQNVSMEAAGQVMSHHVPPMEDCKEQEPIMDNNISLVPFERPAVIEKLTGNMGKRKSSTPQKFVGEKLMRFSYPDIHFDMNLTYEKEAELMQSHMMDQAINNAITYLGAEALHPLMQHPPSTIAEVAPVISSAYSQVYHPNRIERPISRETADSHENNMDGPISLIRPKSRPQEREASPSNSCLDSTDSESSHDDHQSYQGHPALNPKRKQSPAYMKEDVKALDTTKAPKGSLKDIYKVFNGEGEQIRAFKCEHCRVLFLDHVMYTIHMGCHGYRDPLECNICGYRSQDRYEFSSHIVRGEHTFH
T1 sequence (Q96SW2 whole entry): as the sequence (Q96SW2 whole entry partner) above
T1 sequence (Q16531 whole entry partner): as the sequence (Q16531 whole entry partner) above

Row | Structure (SMILES) | DC50 [1] [µM] | Dmax [1] [%] | DC50 [2] [µM] | Dmax [2] [%] | Helios Dmax [1] [%] | Ikaros Dmax [2] [%]
1 | CC1CCCN1Cc1ccnc(-c2ccc3c(c2)CN(C2CCC(=O)NC2=O)C3=O)c1 (stereo not shown) [Example 20, 3-(5-(4-((2-methylpyrrolidin-1-yl)methyl)pyridin-2-yl)-1-oxoisoindolin-2-yl)piperidine-2,6-dione] | 0.06 | 80 | > 10 | 11 | – | –
2 | CN(C)CCN(C)Cc1ccnc(-c2ccc3c(c2)CN(C2CCC(=O)NC2=O)C3=O)c1 (stereo not shown) [Example 21, 3-(5-(4-(((2-(dimethylamino)ethyl) (methyl)amino)methyl)pyridin-2-yl)-1-oxoisoindolin-2-yl)piperidine-2,6-dione] | > 10 | 35 | > 10 | 4 | – | –
3 | CCN(Cc1ccncc1)Cc1ccnc(-c2ccc3c(c2)CN(C2CCC(=O)NC2=O)C3=O)c1 (stereo not shown) [Example 22, 3-(5-(4-((ethyl(pyridin-4-ylmethyl)amino)methyl)pyridin-2-yl)-1-oxoisoindolin-2-yl) piperidine-2,6-dione] | 0.537 | 67 | > 10 | 33 | – | –
4 | O=C1CCC(N2Cc3cc(-c4cc(CN5CCC(N6CCCC6)CC5)ccn4)ccc3C2=O)C(=O)N1 (stereo not shown) [Example 23, 3-(1-oxo-5-(4-((4-(pyrrolidin-1-yl)piperidin-1-yl)methyl)pyridin-2-yl)isoindolin-2-yl)piperidine-2,6-dione] | > 10 | 22 | > 10 | 14 | – | –
5 | O=C1CCC(N2Cc3cc(-c4cc(CN5CCN(C(=O)c6ccco6)CC5)ccn4)ccc3C2=O)C(=O)N1 (stereo not shown) [Example 24, 3-(5-(4-((4-(furan-2-carbonyl)piperazin-1-yl)methyl)pyridin-2-yl)-1-oxoisoindolin-2-yl)piperidine-2,6-dione] | > 10 | 3 | > 10 | 11 | – | –
6 | O=C1CCC(N2Cc3cc(-c4cc(CN5CCN(c6ccncc6)CC5)ccn4)ccc3C2=O)C(=O)N1 (stereo not shown) [Example 25, 3-(1-oxo-5-(4-((4-(pyridin-4-yl)piperazin-1-yl)methyl)pyridin-2-yl)isoindolin-2-yl)piperidine-2,6-dione] | > 10 | 0 | > 10 | 0 | – | –
7 | O=C1CCC(N2Cc3cc(-c4cc(CN5CCN(c6cnccn6)CC5)ccn4)ccc3C2=O)C(=O)N1 (stereo not shown) [Example 26, 3-(1-oxo-5-(4-((4-(pyrazin-2-yl)piperazin-1-yl)methyl)pyridin-2-yl)isoindolin-2-yl)piperidine-2,6-dione] | > 10 | 6 | > 10 | 15 | – | –
8 | Cc1cccc(N2CCN(Cc3ccnc(-c4ccc5c(c4)CN(C4CCC(=O)NC4=O)C5=O)c3)CC2C)c1 (stereo not shown) [Example 27, 3-(5-(4-((3-methyl-4-(m-tolyl)piperazin-1-yl)methyl)pyridin-2-yl)-1-oxoisoindolin-2-yl)piperidine-2,6-dione] | > 10 | 36 | > 10 | 7 | – | –
9 | CC(=O)N1CCN(Cc2ccnc(-c3ccc4c(c3)CN(C3CCC(=O)NC3=O)C4=O)c2)CC1 (stereo not shown) [Example 28, 3-(5-(4-((4-acetylpiperazin-1-yl)methyl)pyridin-2-yl)-1-oxoisoindolin-2-yl)piperidine-2,6-dione] | > 10 | 17 | > 10 | 13 | – | –
10 | CN1CCC(N(C)Cc2ccnc(-c3ccc4c(c3)CN(C3CCC(=O)NC3=O)C4=O)c2)C1 (stereo not shown) [Example 29, 3-(5-(4-((methyl(1-methylpyrrolidin-3-yl)amino)methyl)pyridin-2-yl)-1-oxoisoindolin-2-yl)piperidine-2,6-dione] | 7.51 | – | > 10 | 6 | 55 | –
11 | CN1CCC[C@H]1CC1CCCCN1Cc1ccnc(-c2ccc3c(c2)CN(C2CCC(=O)NC2=O)C3=O)c1 (stereo partly drawn) [Example 30, 3-(5-(4-((2-(((S)-1-methylpyrrolidin-2-yl)methyl)piperidin-1-yl)methyl)pyridin-2-yl)-1-oxoisoindolin-2-yl)piperidine-2,6-dione] | > 10 | 46 | > 10 | -1 | – | –
12 | CC(=O)N[C@H]1CCN(Cc2ccnc(-c3ccc4c(c3)CN(C3CCC(=O)NC3=O)C4=O)c2)C1 (stereo partly drawn) [Example 31, N-((3S)-1-((2-(2-(2,6-dioxopiperidin-3-yl)-1-oxoisoindolin-5-yl)pyridin-4-yl)methyl)pyrrolidin-3-yl)acetamide] | 0.268 | 81 | > 10 | 20 | – | –
13 | O=C1CCC(N2Cc3cc(-c4cc(CN5CCN(C(=O)C6CCCO6)CC5)ccn4)ccc3C2=O)C(=O)N1 (stereo not shown) [Example 32, 3-(1-oxo-5-(4-((4-(tetrahydrofuran-2-carbonyl)piperazin-1-yl)methyl)pyridin-2-yl)isoindolin-2-yl) piperidine-2,6-dione] | > 10 | 35 | > 10 | 23 | – | –
14 | CN(C)[C@H]1CCN(Cc2ccnc(-c3ccc4c(c3)CN(C3CCC(=O)NC3=O)C4=O)c2)C1 (stereo partly drawn) [Example 33, 3-(5-(4-(((S)-3-(dimethylamino)pyrrolidin-1-yl)methyl)pyridin-2-yl)-1-oxoisoindolin-2-yl)piperidine-2,6-dione] | > 10 | 50 | > 10 | 2 | – | –
15 | CN(CC(=O)N(C)C)Cc1ccnc(-c2ccc3c(c2)CN(C2CCC(=O)NC2=O)C3=O)c1 (stereo not shown) [Example 34, 2-(((2-(2-(2,6-dioxopiperidin-3-yl)-1-oxoisoindolin-5-yl)pyridin-4-yl)methyl)(methyl)amino)-N,N-dimethylacetamide] | > 10 | 26 | > 10 | 9 | – | –
16 | CN1CCN(Cc2ccnc(-c3ccc4c(c3)CN(C3CCC(=O)NC3=O)C4=O)c2)CC1 (stereo not shown) [Example 35, 3-(5-(4-((4-methylpiperazin-1-yl)methyl)pyridin-2-yl)-1-oxoisoindolin-2-yl)piperidine-2,6-dione] | 0.869 | 63 | > 10 | 30 | – | –
17 | O=C1CCC(N2Cc3cc(-c4cc(CN5CCN(Cc6ccccc6)CC5)ccn4)ccc3C2=O)C(=O)N1 (stereo not shown) [Example 36] | > 10 | – | > 10 | – | 11 | 14
18 | O=C1CN(Cc2ccnc(-c3ccc4c(c3)CN(C3CCC(=O)NC3=O)C4=O)c2)CCN1 (stereo not shown) [Example 37, 3-(1-oxo-5-(4-((3-oxopiperazin-1-yl)methyl)pyridin-2-yl)isoindolin-2-yl)piperidine-2,6-dione] | > 10 | 24 | > 10 | 10 | – | –
19 | O=C1CCC(N2Cc3cc(-c4cc(CN5CCC(Cc6ccccc6)CC5)ccn4)ccc3C2=O)C(=O)N1 (stereo not shown) [Example 38, 3-(5-(4-((4-benzylpiperidin-1-yl)methyl)pyridin-2-yl)-1-oxoisoindolin-2-yl)piperidine-2,6-dione] | 0.087 | 68 | > 10 | 6 | – | –
20 | O=C1CCC(N2Cc3cc(-c4cc(CN5CCc6ccccc6C5)ccn4)ccc3C2=O)C(=O)N1 (stereo not shown) [Example 39, 3-(5-(4-((3,4-dihydroisoquinolin-2(1H)-yl)methyl)pyridin-2-yl)-1-oxoisoindolin-2-yl)piperidine-2,6-dione] | 0.444 | 58 | > 10 | 6 | – | –
21 | CN(C)C1CCN(Cc2ccnc(-c3ccc4c(c3)CN(C3CCC(=O)NC3=O)C4=O)c2)CC1 (stereo not shown) [Example 40, 3-(5-(4-((4-(dimethylamino)piperidin-1-yl)methyl)pyridin-2-yl)-1-oxoisoindolin-2-yl)piperidine-2,6-dione] | > 10 | 9 | > 10 | 8 | – | –
22 | NC(=O)C1CCN(Cc2ccnc(-c3ccc4c(c3)CN(C3CCC(=O)NC3=O)C4=O)c2)CC1 (stereo not shown) [Example 41, 1-((2-(2-(2,6-dioxopiperidin-3-yl)-1-oxoisoindolin-5-yl)pyridin-4-yl)methyl)piperidine-4-carboxamide] | 0.727 | 80 | > 10 | 24 | – | –
